Experimental data: paper doi:10.1101/2025.08.01.668199, “Vacuolar Phosphatidylinositol 3,4,5-trisphosphate controls fusion through binding Vam7, and membrane microdomain assembly” (bioRxiv, 2025)

Experiments:
Vam7 = molecular target: T1, Vam7 (Saccharomyces cerevisiae, UniProt P32912); assay: bio-layer interferometry, biotinylated lipid on streptavidin probe; assay type: binding
T1 construct: GST-Vam7
T1 sequence (P32912 1-316): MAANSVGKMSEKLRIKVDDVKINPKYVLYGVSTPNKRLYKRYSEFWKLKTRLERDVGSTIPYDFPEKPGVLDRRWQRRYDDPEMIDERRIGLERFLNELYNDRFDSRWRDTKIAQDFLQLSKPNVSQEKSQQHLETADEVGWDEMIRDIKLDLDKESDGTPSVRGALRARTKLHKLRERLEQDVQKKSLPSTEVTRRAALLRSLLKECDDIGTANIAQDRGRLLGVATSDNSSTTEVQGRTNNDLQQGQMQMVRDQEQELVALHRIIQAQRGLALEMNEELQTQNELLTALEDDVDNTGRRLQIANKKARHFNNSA

Vam7^Y42A = molecular target: T2, Vam7^Y42A (Saccharomyces cerevisiae, UniProt P32912, Y42A); assay: as above; assay type: binding
T2 construct: GST-Vam7^Y42A
T2 sequence (P32912 whole entry Y42A): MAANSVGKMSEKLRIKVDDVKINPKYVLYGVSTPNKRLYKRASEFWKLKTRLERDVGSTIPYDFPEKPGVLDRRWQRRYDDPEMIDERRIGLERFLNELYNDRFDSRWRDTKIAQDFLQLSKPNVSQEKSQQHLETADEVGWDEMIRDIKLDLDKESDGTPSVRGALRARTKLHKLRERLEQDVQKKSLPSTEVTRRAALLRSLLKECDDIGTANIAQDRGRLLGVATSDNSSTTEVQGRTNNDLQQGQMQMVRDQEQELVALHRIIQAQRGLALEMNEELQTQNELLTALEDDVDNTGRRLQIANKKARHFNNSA

Substance | Kd (Vam7) | Kd (Vam7^Y42A)
PI3P | ~200 nM | 
PI(3,4,5)P3 | ~70 nM | ~210 nM
